Patent US7888393B2, “Transdermal compositions” (Microdermis Corporation, priority 2002, dated 2011)
Each block holds one compound with its values, some of them ahead of it.

Legend:
[1] = pH of quaternary compounds, fatty acids and their reaction products in water (calibrated pH meter); type: physicochemical; details: for pH of product compound (reaction of quaternary compound with fatty acid): molar ratio DDAC to fatty acid 1:1, 70-75 °C, after 10 minutes
Experimental: Example 2 was repeated employing the fatty acids; Conjugated Linoleic Acid (CLA); eicosapentaenoic acid (EPA); and gamma linolenic acid (GLA), were all dissolved in water and the pH of the resulting solutions were measured with a calibrated pH meter.
Three solutions of DDAC (188.2 g) in distilled water (2,000 g) were contacted with masses of CLA, EPA and GLA, such that the molar ratio of DDAC to each of the aforementioned fatty acids was 1:1 at a temperature of 70° C. to 75° C. and after 10 minutes the pH of the reaction products of each of these products was measured.
Merquat 550 is a trademark owned by Calgon, Inc. its manufacturer, for a proprietary cationic polymer having a repeating unit molecular weight of 680 and an overall molecular weight of about 10,000. The pH of these first transdermal compositions were measured. […] Ten minutes after acid addition, the pH of the product composition were measured.

open wounds = assay: Seventh transdermal composition on open wounds of patients (healing, pain); type: in vivo
Text: As one skilled in the art can well appreciate there are endless numbers of combinations that can be made to create the desired skin effects. For example, when the quaternary ammonium salt, such as […] (DDAC), and the like, is present in a neutral pH in the first transdermal composition of the present invention described hereinabove, the formic acid from the bug bite is more effectively and more rapidly neutralized. On the other hand, when the quaternary ammonium salt, e.g., DDAC, is present in the seventh transdermal composition of the present invention, the healing rate on open wounds improves. However, when the quaternary ammonium salt, e.g., DDAC, is not substantially converted to the first reaction product, some of the patients, approximately 25% thereof, feel pain.

[2] = Stability of benzethonium chloride added to the transdermal mixtures; type: physicochemical
Experimental: When benzethonium chloride is added in therapeutically effective amounts to the mixtures described herein, it is stable if added at ambient temperature at a pH greater than 6. On the other hand, it is not stable if added at temperatures below the Freezing Zone and above ambient temperature at a pH of about 7.5 to about 8.

[3] = DDAC split between first reaction product (80%) and unreacted DDAC (20%)

Compound: CCCCCCCCCCCCCCCCCC[N+](C)(C)CCCCCCCCCCCCCCCCCC.[Cl-] [DDAC, dimethyl distearyl ammonium chloride]
pH of quaternary compound in water ([1]; DDAC 188.2 g in distilled water 2,000 g): 5.38 | Patients who feel pain (open wounds; DDAC not substantially converted to the first reaction product): approximately 25% | Healing (open wounds; [3]): rapid healing | Pain (open wounds; [3]): did not feel pain

Compound: CC/C=C\C/C=C\C/C=C\CCCCCCCC(=O)[O-].CCCCCCCCCCCCCCCCCC[N+](C)(C)CCCCCCCCCCCCCCCCCC [DDAL, Dimethyl Distearyl Ammonium Linolenate]
pH of product compound (reaction of quaternary compound with fatty acid) [1]: 2.28

Compound: CC(C)(C)CC(C)(C)c1ccc(OCCOCC[N+](C)(C)Cc2ccccc2)cc1 [benzethonium chloride]
Stability of benzethonium chloride in the mixture ([2]; added above the Freezing Zone, tip speed greater than Critical Shear Rate, pH about 7.5 to about 8): stable | Stability of benzethonium chloride in the mixture ([2]; added at ambient temperature at pH greater than 6): stable | Stability of benzethonium chloride in the mixture ([2]; added below the Freezing Zone and above ambient temperature at pH about 7.5 to about 8): not stable

pH of fatty acid dissolved in water ([1]; fatty acid alone in water): (4.00)
Compound: Conjugated Linoleic Acid [CLA]

pH of Quat and Stearic Acid ([1]; 70-75 °C, stearic acid 40 g, ten minutes after acid addition): 2.40 | pH of quaternary compound ([1]; mixed with distilled water (2,000 g), before heating): 7.83
Compound: benzalkonium chloride [BAC]

Compound: dimethyl distearyl ammonium stearate [DDAS]
pH of product compound (reaction of quaternary compound with fatty acid) [1]: 2.38
